ChEMBL document CHEMBL4825753 (J Med Chem, 2021)

Experiment: Lipophilicity, log D of the compound at pH 7.4
Format: physicochemical
Conditions: buffer

**Q.** With CN(Cc1ccc2nccn2c1)c1nnc(-c2ccc(-c3ccccc3Cl)cc2)o1 as the compound, how does the logD read?
**A.** The logD was 4.7.
